Data as given in BigSolDB 2.1.

`CCCCC[n+]1csc2ccccc21.F[P-](F)(F)(F)(F)F` showed a solubility (mole fraction) (in furfural, 272.3 K) of 0.085, a solubility (mole fraction) (in furfural, 277.25 K) of 0.0866 and a solubility (mole fraction) (in furfural, 284.65 K) of 0.0981. It also gave a solubility (mole fraction) (in furfural, 290.85 K) of 0.108, a solubility (mole fraction) (in furfural, 296.15 K) of 0.118 and a solubility (mole fraction) (in furfural, 302.85 K) of 0.131. It also gave a solubility (mole fraction) (in furfural, 313.5 K) of 0.151, a solubility (mole fraction) (in furfural, 321.04 K) of 0.171 and a solubility (mole fraction) (in furfural, 324.75 K) of 0.189. For the same molecule, the solubility (mole fraction) (in furfural, 330 K) was 0.214, the solubility (mole fraction) (in furfural, 335.04 K) was 0.239 and the solubility (mole fraction) (in water, 278.15 K) was 2.36e-05. For the same molecule, the solubility (mole fraction) (in water, 282.35 K) was 2.97e-05, the solubility (mole fraction) (in water, 290.15 K) was 4.01e-05 and the solubility (mole fraction) (in water, 295.15 K) was 4.89e-05. The solubility (mole fraction) (in water, 302.15 K) was 6.5e-05, the solubility (mole fraction) (in water, 308.15 K) was 8.63e-05 and the solubility (mole fraction) (in water, 313.25 K) was 0.00011. The solubility (mole fraction) (in water, 318.15 K) was 0.00013, the solubility (mole fraction) (in water, 323.15 K) was 0.000153 and the solubility (mole fraction) (in water, 328.15 K) was 0.000189. For the same molecule, the solubility (mole fraction) (in water, 330.05 K) was 0.000205, the solubility (mole fraction) (in water, 333.15 K) was 0.000226 and the solubility (mole fraction) (in water, 338.05 K) was 0.000259. It also gave a solubility (mole fraction) (in water, 342.75 K) of 0.000293, a solubility (mole fraction) (in water, 348.15 K) of 0.000356 and a solubility (mole fraction) (in water, 353.15 K) of 0.000466. The solubility (mole fraction) (in water, 357.95 K) was 0.000676, the solubility (mole fraction) (in water, 363.15 K) was 0.000878 and the solubility (mole fraction) (in water, 368.05 K) was 0.00109.

`CCCCCCCC[n+]1csc2ccccc21.F[P-](F)(F)(F)(F)F` showed a solubility (mole fraction) (in furfural, 271.1 K) of 0.33, a solubility (mole fraction) (in furfural, 274.97 K) of 0.35 and a solubility (mole fraction) (in furfural, 278.47 K) of 0.38. The solubility (mole fraction) (in furfural, 281.46 K) was 0.396, the solubility (mole fraction) (in furfural, 285.15 K) was 0.423 and the solubility (mole fraction) (in furfural, 287.37 K) was 0.445. The solubility (mole fraction) (in furfural, 289.48 K) was 0.471, the solubility (mole fraction) (in furfural, 292.47 K) was 0.5 and the solubility (mole fraction) (in furfural, 296.07 K) was 0.541. It also gave a solubility (mole fraction) (in furfural, 300.95 K) of 0.597, a solubility (mole fraction) (in furfural, 305.47 K) of 0.64 and a solubility (mole fraction) (in furfural, 311.66 K) of 0.711. The solubility (mole fraction) (in furfural, 314.97 K) was 0.745, the solubility (mole fraction) (in furfural, 318.86 K) was 0.786 and the solubility (mole fraction) (in furfural, 321.52 K) was 0.81. The solubility (mole fraction) (in furfural, 323.8 K) was 0.829, the solubility (mole fraction) (in furfural, 327.08 K) was 0.858 and the solubility (mole fraction) (in water, 278.15 K) was 1.79e-05. It also gave a solubility (mole fraction) (in water, 283.2 K) of 2.1e-05, a solubility (mole fraction) (in water, 290.15 K) of 2.61e-05 and a solubility (mole fraction) (in water, 294.15 K) of 3.12e-05. For the same molecule, the solubility (mole fraction) (in water, 300.15 K) was 4.01e-05, the solubility (mole fraction) (in water, 308.15 K) was 5.5e-05 and the solubility (mole fraction) (in water, 313.15 K) was 7e-05. For the same molecule, the solubility (mole fraction) (in water, 318.15 K) was 9.11e-05, the solubility (mole fraction) (in water, 323.15 K) was 0.000107 and the solubility (mole fraction) (in water, 328.15 K) was 0.000128. For the same molecule, the solubility (mole fraction) (in water, 333.15 K) was 0.000142, the solubility (mole fraction) (in water, 338.15 K) was 0.000163 and the solubility (mole fraction) (in water, 342.95 K) was 0.000179. The solubility (mole fraction) (in water, 348.15 K) was 0.000196, the solubility (mole fraction) (in water, 352.75 K) was 0.000212 and the solubility (mole fraction) (in water, 358.05 K) was 0.000235. It also gave a solubility (mole fraction) (in water, 363.15 K) of 0.000261 and a solubility (mole fraction) (in water, 367.75 K) of 0.000285.

In the case of `CCCCCCC[n+]1csc2ccccc21.F[P-](F)(F)(F)(F)F`, the solubility (mole fraction) (in furfural, 272.2 K) is reported as 0.27, the solubility (mole fraction) (in furfural, 274.55 K) is reported as 0.276 and the solubility (mole fraction) (in furfural, 280.85 K) is reported as 0.297. It also gave a solubility (mole fraction) (in furfural, 284.65 K) of 0.318, a solubility (mole fraction) (in furfural, 291.71 K) of 0.35 and a solubility (mole fraction) (in furfural, 296.7 K) of 0.38. The solubility (mole fraction) (in furfural, 301.2 K) was 0.41, the solubility (mole fraction) (in furfural, 304.21 K) was 0.433 and the solubility (mole fraction) (in furfural, 307.6 K) was 0.451. It also gave a solubility (mole fraction) (in furfural, 310.41 K) of 0.47, a solubility (mole fraction) (in furfural, 313.72 K) of 0.487 and a solubility (mole fraction) (in furfural, 315.6 K) of 0.503. The solubility (mole fraction) (in furfural, 318.68 K) was 0.532, the solubility (mole fraction) (in furfural, 322.88 K) was 0.561 and the solubility (mole fraction) (in furfural, 325.58 K) was 0.582. For the same molecule, the solubility (mole fraction) (in furfural, 327.81 K) was 0.601, the solubility (mole fraction) (in furfural, 329.99 K) was 0.622 and the solubility (mole fraction) (in furfural, 331.87 K) was 0.644. For the same molecule, the solubility (mole fraction) (in water, 278.15 K) was 2.26e-05, the solubility (mole fraction) (in water, 282.35 K) was 2.91e-05 and the solubility (mole fraction) (in water, 288.15 K) was 3.5e-05. The solubility (mole fraction) (in water, 294.15 K) was 4.2e-05, the solubility (mole fraction) (in water, 300.15 K) was 5.5e-05 and the solubility (mole fraction) (in water, 308.15 K) was 7.07e-05. For the same molecule, the solubility (mole fraction) (in water, 313.05 K) was 8.48e-05, the solubility (mole fraction) (in water, 318.15 K) was 0.000106 and the solubility (mole fraction) (in water, 323.15 K) was 0.000124. It also gave a solubility (mole fraction) (in water, 328.15 K) of 0.000155, a solubility (mole fraction) (in water, 333.15 K) of 0.000186 and a solubility (mole fraction) (in water, 338.05 K) of 0.00023. The solubility (mole fraction) (in water, 342.75 K) was 0.000272, the solubility (mole fraction) (in water, 348.45 K) was 0.000311 and the solubility (mole fraction) (in water, 353.15 K) was 0.000357. It also gave a solubility (mole fraction) (in water, 358.15 K) of 0.00041, a solubility (mole fraction) (in water, 363.35 K) of 0.000464 and a solubility (mole fraction) (in water, 368.55 K) of 0.000521.

In the case of `CCCC[n+]1csc2ccccc21.F[P-](F)(F)(F)(F)F`, the solubility (mole fraction) (in furfural, 273.3 K) is reported as 0.155, the solubility (mole fraction) (in furfural, 281.45 K) is reported as 0.185 and the solubility (mole fraction) (in furfural, 288.25 K) is reported as 0.205. It also gave a solubility (mole fraction) (in furfural, 298.35 K) of 0.246, a solubility (mole fraction) (in furfural, 302.93 K) of 0.263 and a solubility (mole fraction) (in furfural, 311 K) of 0.3. The solubility (mole fraction) (in furfural, 317.62 K) was 0.333, the solubility (mole fraction) (in furfural, 324.5 K) was 0.364 and the solubility (mole fraction) (in furfural, 331.25 K) was 0.393. For the same molecule, the solubility (mole fraction) (in water, 278.15 K) was 6.76e-05, the solubility (mole fraction) (in water, 283.2 K) was 8.72e-05 and the solubility (mole fraction) (in water, 288.1 K) was 0.000113. For the same molecule, the solubility (mole fraction) (in water, 293.05 K) was 0.000139, the solubility (mole fraction) (in water, 298.15 K) was 0.000168 and the solubility (mole fraction) (in water, 302.95 K) was 0.000204. It also gave a solubility (mole fraction) (in water, 308.55 K) of 0.000237, a solubility (mole fraction) (in water, 313.15 K) of 0.000297 and a solubility (mole fraction) (in water, 318.1 K) of 0.000355. For the same molecule, the solubility (mole fraction) (in water, 323 K) was 0.000405, the solubility (mole fraction) (in water, 327.95 K) was 0.000478 and the solubility (mole fraction) (in water, 333.1 K) was 0.0006. The solubility (mole fraction) (in water, 338.05 K) was 0.000721, the solubility (mole fraction) (in water, 343.1 K) was 0.000839 and the solubility (mole fraction) (in water, 348 K) was 0.001. The solubility (mole fraction) (in water, 353.15 K) was 0.00116, the solubility (mole fraction) (in water, 357.9 K) was 0.00142 and the solubility (mole fraction) (in water, 363 K) was 0.00175. For the same molecule, the solubility (mole fraction) (in water, 367.9 K) was 0.00198.

Molecule `CCCCCC[n+]1csc2ccccc21.F[P-](F)(F)(F)(F)F` has a solubility (mole fraction) (in furfural, 273.25 K) of 0.201, a solubility (mole fraction) (in furfural, 276 K) of 0.208 and a solubility (mole fraction) (in furfural, 282.04 K) of 0.234. It also gave a solubility (mole fraction) (in furfural, 290.19 K) of 0.269, a solubility (mole fraction) (in furfural, 296.05 K) of 0.297 and a solubility (mole fraction) (in furfural, 301.03 K) of 0.321. The solubility (mole fraction) (in furfural, 305.08 K) was 0.345, the solubility (mole fraction) (in furfural, 308.23 K) was 0.366 and the solubility (mole fraction) (in furfural, 311.95 K) was 0.385. For the same molecule, the solubility (mole fraction) (in furfural, 315.95 K) was 0.406, the solubility (mole fraction) (in furfural, 318.39 K) was 0.424 and the solubility (mole fraction) (in furfural, 321.62 K) was 0.451. It also gave a solubility (mole fraction) (in furfural, 325.05 K) of 0.479, a solubility (mole fraction) (in furfural, 327.64 K) of 0.513 and a solubility (mole fraction) (in furfural, 330.95 K) of 0.55. The solubility (mole fraction) (in furfural, 333.5 K) was 0.581, the solubility (mole fraction) (in furfural, 335.75 K) was 0.616 and the solubility (mole fraction) (in water, 278.15 K) was 3.17e-05. For the same molecule, the solubility (mole fraction) (in water, 282.75 K) was 3.31e-05, the solubility (mole fraction) (in water, 289.15 K) was 4.3e-05 and the solubility (mole fraction) (in water, 294.15 K) was 5.12e-05. The solubility (mole fraction) (in water, 298.15 K) was 6.5e-05, the solubility (mole fraction) (in water, 303.15 K) was 7.64e-05 and the solubility (mole fraction) (in water, 308.15 K) was 9.38e-05. The solubility (mole fraction) (in water, 313.15 K) was 0.000109, the solubility (mole fraction) (in water, 318.15 K) was 0.000129 and the solubility (mole fraction) (in water, 323.15 K) was 0.000156. For the same molecule, the solubility (mole fraction) (in water, 328.15 K) was 0.00021, the solubility (mole fraction) (in water, 330.15 K) was 0.000235 and the solubility (mole fraction) (in water, 333.05 K) was 0.000256. The solubility (mole fraction) (in water, 338.05 K) was 0.000322, the solubility (mole fraction) (in water, 342.75 K) was 0.000404 and the solubility (mole fraction) (in water, 347.95 K) was 0.000463. The solubility (mole fraction) (in water, 352.95 K) was 0.000543, the solubility (mole fraction) (in water, 357.75 K) was 0.000595 and the solubility (mole fraction) (in water, 362.95 K) was 0.000659. The solubility (mole fraction) (in water, 367.95 K) was 0.000743.
